# Data from PubChem BioAssay (NCI).
#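 1) Cells in 96-well plates. 2) Compound, 48 h, 5 concentrations. 3) Linear interpolation between surrounding doses. 4) Unreached endpoint = highest concentration. TGI denotes the concentration required for complete inhibition of growth.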
# System: EKVX NSCLC
# Test: DTP human tumour cell line panel, 48 h
row,Structure (SMILES),TGI [µM]
1,COc1ccc(O)c(/C(C)=N/NC(=S)N(C)C)c1,> 100
2,c1ccc(CSP234N5CCN2CCN3CCN4CC5)c(CSP234N5CCN2CCN3CCN4CC5)c1,> 100
3,c1csc(-c2cc(-c3cccs3)c(-c3ccsc3)s2)c1,> 100
4,Cc1ccc(S(=O)(=O)OC(c2ccc(Cl)cc2Cl)C2OC(=O)c3ccccc32)cc1 (stereo unspecified),> 100
5,CN1C2CCC1CC(CCNC(c1ccccc1)c1ccccc1)C2 (stereo unspecified),> 100
6,CCOP(=O)(O)C1C(CO)OC(n2ccc(=O)[nH]c2=O)C1O (stereo unspecified),> 100
7,O=C1NCCCNCCCNCCCNC(=O)c2cccc1n2,> 100
8,O=C1O/C(=C(/Br)c2ccc(Cl)c(Cl)c2)c2ccccc21,> 10
9,CSC1=N/C(=C\c2ccccc2)C(=O)N1CN1CCCCC1,> 100

# System: HL-60(TB) leukemia
# Test: DTP human tumour cell line panel, 48 h
row,Structure (SMILES),TGI [µM]
1,Cc1ccc(N=Nc2c(C)c(C#N)c(=S)n(C3OC(CO)C(O)C(O)C3O)c2C)cc1 (stereo unspecified),> 100
2,C=C(CC[C@@H](C)[C@H]1CC[C@@]2(C)C3=C(CC[C@]12C)[C@@]1(C)CC[C@H](O)[C@@H](C)C1CC3)C(C)C (stereo partly specified),8.32
3,C=C1CCC23CC(CC[C@@H]2[C@@]12C[C@@H](c1ccoc1)OC2=O)OC3=O (stereo partly specified),> 100
4,CC(=O)OCCOCn1cnc2c(Cl)nc(Cl)nc21,6.21
5,CNC(=O)N1CN(c2ccccc2)C2(CCN(CCCC3(c4ccc(F)cc4)OCCO3)CC2)C1=O,> 100
6,O=C(Cc1ccccc1)N/N=C/c1ccccc1O,> 100
7,COc1ccc(N2C(=O)c3cc(C)cnc3S2(=O)=O)cc1,> 100
8,CC(C)=CC(=O)C[C@H]1C(=O)O[C@@H]2C[C@H]3C(C)=CC(=O)[C@@H](O)[C@]3(C)[C@H]3[C@@]4(O)OC[C@]32[C@@H]1[C@@H](C)[C@H]4O,> 100
9,CC1(C)CC(=O)C(/C=N/c2nc(-c3ccccc3)cs2)=C(O)C1,> 100
10,CCN(CC)CC(=O)O[C@]1(CC)C(=O)OCc2c1cc1n(c2=O)Cc2cc3ccccc3nc2-1,0.401
11,N#Cc1nc(C2=C(Cl)c3ccccc3OC2)[nH]c1C#N,70.7
12,COc1ccc(-c2cc(=O)c3ccccc3[nH]2)c(OC)c1,> 100
13,C/C=C(/C)C(=O)O[C@H]1C[C@@H]2[C@@H](O)c3occ(C)c3C[C@]2(C)[C@@H](C)C1,28.9
14,CC(=NNC(=S)Nc1ccc(C)cc1)c1cccc(C(C)=NNC(=S)Nc2ccc(C)cc2)n1,15.7
15,COc1ccc(O)c(/C(C)=N/NC(=S)N(C)C)c1,> 100
16,c1ccc(CSP234N5CCN2CCN3CCN4CC5)c(CSP234N5CCN2CCN3CCN4CC5)c1,77
17,c1csc(-c2cc(-c3cccs3)c(-c3ccsc3)s2)c1,> 100
18,Cc1ccc(S(=O)(=O)OC(c2ccc(Cl)cc2Cl)C2OC(=O)c3ccccc32)cc1 (stereo unspecified),86.1
19,CN1C2CCC1CC(CCNC(c1ccccc1)c1ccccc1)C2 (stereo unspecified),> 100
20,CCOP(=O)(O)C1C(CO)OC(n2ccc(=O)[nH]c2=O)C1O (stereo unspecified),> 100
21,O=C1O/C(=C(/Br)c2ccc(Cl)c(Cl)c2)c2ccccc21,> 10
22,CCOC(=O)C(Cc1cn(S(=O)(=O)c2ccccc2)c2ccccc12)(NC(C)=O)C(=O)OCC,41.5

# System: HOP-62 NSCLC
# Test: DTP human tumour cell line panel, 48 h
row,Structure (SMILES),TGI [µM]
1,Cc1ccc(N=Nc2c(C)c(C#N)c(=S)n(C3OC(CO)C(O)C(O)C3O)c2C)cc1 (stereo unspecified),84.9
2,C=C(CC[C@@H](C)[C@H]1CC[C@@]2(C)C3=C(CC[C@]12C)[C@@]1(C)CC[C@H](O)[C@@H](C)C1CC3)C(C)C (stereo partly specified),1.9
3,C=C1CCC23CC(CC[C@@H]2[C@@]12C[C@@H](c1ccoc1)OC2=O)OC3=O (stereo partly specified),> 100
4,CC(=O)OCCOCn1cnc2c(Cl)nc(Cl)nc21,36.4
5,CNC(=O)N1CN(c2ccccc2)C2(CCN(CCCC3(c4ccc(F)cc4)OCCO3)CC2)C1=O,> 100
6,COc1ccc(N2C(=O)c3cc(C)cnc3S2(=O)=O)cc1,> 100
7,CC(C)=CC(=O)C[C@H]1C(=O)O[C@@H]2C[C@H]3C(C)=CC(=O)[C@@H](O)[C@]3(C)[C@H]3[C@@]4(O)OC[C@]32[C@@H]1[C@@H](C)[C@H]4O,1.8
8,CC1(C)CC(=O)C(/C=N/c2nc(-c3ccccc3)cs2)=C(O)C1,> 100
9,CCN(CC)CC(=O)O[C@]1(CC)C(=O)OCc2c1cc1n(c2=O)Cc2cc3ccccc3nc2-1,< 0.048
10,Cn1c(=O)c2[nH]c(CCCCC(=O)O)nc2n(C)c1=O,> 100
11,COc1ccc(-c2cc(=O)c3ccccc3[nH]2)c(OC)c1,> 100
12,C/C=C(/C)C(=O)O[C@H]1C[C@@H]2[C@@H](O)c3occ(C)c3C[C@]2(C)[C@@H](C)C1,31.3
13,Cc1ccc(-c2c3nc(c(-c4ccc(C)cc4)c4ccc([nH]4)c(-c4ccc(OCC5COC(C)(C)O5)cc4)c4nc(c(-c5ccc(C)cc5)c5ccc2[nH]5)C=C4)C=C3)cc1 (stereo unspecified),> 31.6
14,CC(=NNC(=S)Nc1ccc(C)cc1)c1cccc(C(C)=NNC(=S)Nc2ccc(C)cc2)n1,68.7
15,N#Cc1c(-c2ccccc2)cc(Nc2cccc(C(F)(F)F)c2)n2c1nc1ccccc12,9.81
16,COc1ccc(O)c(/C(C)=N/NC(=S)N(C)C)c1,> 100
17,c1ccc(CSP234N5CCN2CCN3CCN4CC5)c(CSP234N5CCN2CCN3CCN4CC5)c1,> 100
18,c1csc(-c2cc(-c3cccs3)c(-c3ccsc3)s2)c1,> 100
19,Cc1ccc(S(=O)(=O)OC(c2ccc(Cl)cc2Cl)C2OC(=O)c3ccccc32)cc1 (stereo unspecified),> 100
20,CN1C2CCC1CC(CCNC(c1ccccc1)c1ccccc1)C2 (stereo unspecified),50.9
21,CCOP(=O)(O)C1C(CO)OC(n2ccc(=O)[nH]c2=O)C1O (stereo unspecified),> 100
22,O=C1NCCCNCCCNCCCNC(=O)c2cccc1n2,> 100
23,O=C1O/C(=C(/Br)c2ccc(Cl)c(Cl)c2)c2ccccc21,> 10
24,CSC1=N/C(=C\c2ccccc2)C(=O)N1CN1CCCCC1,> 100
25,CCOC(=O)C(Cc1cn(S(=O)(=O)c2ccccc2)c2ccccc12)(NC(C)=O)C(=O)OCC,> 100
